Experimental data as given in US9012397B2 (priority 2011, dated 2015).

System: unidentified sting
Parameters: species or system human
Settings: in vivo

Substance: pGLU-ASN-TRP-LYS-C8 [ZEP3]
- clinical outcome: relief from the itching sensation within a number of minutes
- time until redness disappeared: 2 days
